Reference: patent publication US7838508B2, “4′-thio-L-xyloy furanosyl nucleosides, precursors thereof, preparation and use thereof” (priority 2000, dated 2010)
Like-named read-outs stand apart in the source and are kept apart here.

Key:
CMV = assay: Antiviral (CMV) activity; assay type: cell-based; conditions: for IC50: Human betaherpesvirus 5, Antiviral (CMV) data, read-out: IC50: 50% Inhibitory Concentration of CMV; for TI: Therapeutic Index (TC50/IC50): TC50/IC50, CMV
Method: (§1) The cell culture cytotoxicity of compounds of the present invention was determined against several different human cancel cell lines (see Table 1 below) and for antiviral activity (see Table 2 below).

[1] = Toxicity (cell viability) in antiviral (CMV) test; assay type: cell-based; conditions: Antiviral (CMV) data; read-out: TC50: Toxic Concentration at 50% cell viability
Method: as §1

SK-MEL-28 (melanoma) = assay: Cell culture cytotoxicity, SK-MEL-28 (melanoma); assay type: cell-based, human
Method: as §1

CAKI-1 (renal) = assay: Cell culture cytotoxicity, CAKI-1 (renal); assay type: cell-based, human
Method: as §1

NCI-H23 (lung) = assay: Cell culture cytotoxicity, NCI-H23 (lung); assay type: cell-based, human
Method: as §1

DLD-1 (colon) = assay: Cell culture cytotoxicity, DLD-1 (colon); assay type: cell-based, human
Method: as §1

CCRF-CEM (leukemia) = assay: Cell culture cytotoxicity, CCRF-CEM (leukemia); assay type: cell-based, human; conditions: read-out: Cytotoxicity IC50, CCRF-CEM (leukemia)
Method: as §1

SNB-7 (CNS) = assay: Cell culture cytotoxicity, SNB-7 (CNS); assay type: cell-based, human
Method: as §1

[2] = SK-MEL-28 human melanoma cell line, read-out: Cytotoxicity IC50, SK-MEL-28 (melanoma)
[3] = CAKI-1 human renal cancer cell line, read-out: Cytotoxicity IC50, CAKI-1 (renal)
[4] = NCI-H23 human lung cancer cell line, read-out: Cytotoxicity IC50, NCI-H23 (lung)
[5] = DLD-1 human colon cancer cell line, read-out: Cytotoxicity IC50, DLD-1 (colon)
[6] = CCRF-CEM human leukemia cell line
[7] = SNB-7 human CNS cancer cell line, read-out: Cytotoxicity IC50, SNB-7 (CNS)

Compound | IC50 (CMV) | TI: Therapeutic Index (TC50/IC50) (CMV) | CC50 [1] | IC50 (SK-MEL-28 (melanoma); Homo sapiens, SK-MEL-28, read-out: Cytotoxicity IC50, SK-MEL-28 (melanoma)) | IC50 (CAKI-1 (renal); Homo sapiens, CAKI-1, read-out: Cytotoxicity IC50, CAKI-1 (renal)) | IC50 (NCI-H23 (lung); Homo sapiens, NCI-H23, read-out: Cytotoxicity IC50, NCI-H23 (lung)) | IC50 (DLD-1 (colon); Homo sapiens, DLD-1, read-out: Cytotoxicity IC50, DLD-1 (colon)) | IC50 (CCRF-CEM (leukemia); Homo sapiens, CCRF-CEM) | IC50 (SNB-7 (CNS); Homo sapiens, SNB-7, read-out: Cytotoxicity IC50, SNB-7 (CNS)) | IC50 (SK-MEL-28 (melanoma); [2]) | IC50 (CAKI-1 (renal); [3]) | IC50 (NCI-H23 (lung); [4]) | IC50 (DLD-1 (colon); [5]) | IC50 (CCRF-CEM (leukemia); [6]) | IC50 (SNB-7 (CNS); [7])
Nc1nc(O)c2ncn(COC(CO)CO)c2n1 [Ganciclovir, reference compound] | 8.6 µM | >11.6 | > 10 µM |  |  |  |  |  |  |  |  |  |  |  | 
O=c1ccn(C2S[C@@H](CO)[C@@H](O)[C@@H]2O)c(=O)[nH]1 (stereo partly drawn) [Compound 19αβ, 1-(4-thioα,β-L-Xylofuranosyl)uracil] |  |  |  | > 100 µM | > 100 µM | > 100 µM | > 100 µM | > 100 µM | > 100 µM |  |  |  |  |  | 
Nc1nc(Cl)nc2c1ncn2[C@@H]1S[C@@H](CO)[C@@H](O)[C@@H]1O [Compound 9α, 2-Chloro-9-(4-thio-α-L-xylofuranosyl)adenine] |  |  |  |  |  |  |  |  |  | > 100 µM | > 100 µM | > 100 µM | > 100 µM | > 100 µM | > 100 µM
Nc1nc(N)c2ncn([C@@H]3S[C@@H](CO)[C@@H](O)[C@@H]3O)c2n1 [Compound 12α, 9-(4-Thio-α-L-Xylofuranosyl)-9H-purine-2,6-diamine] | 0.051 µM | >196.1 | > 10 µM |  |  |  |  |  |  | > 100 µM | > 100 µM | > 100 µM | > 100 µM | > 100 µM | > 100 µM
Nc1nc2c(ncn2[C@H]2S[C@@H](CO)[C@@H](O)[C@@H]2O)c(=O)[nH]1 [Compound 13, 9-(4-Thio-β-L-xylofuranosyl)guanine] |  |  |  |  |  |  |  |  |  | > 100 µM | > 100 µM | > 100 µM | > 100 µM | > 100 µM | > 100 µM
1-(4′-thio-α,β-L-Xylofuranosyl)thymine [Compound 17αβ] |  |  |  |  |  |  |  |  |  | > 100 µM | > 100 µM | > 100 µM | > 100 µM | > 100 µM | > 100 µM
Nc1ccn([C@@H]2S[C@@H](CO)[C@@H](O)[C@@H]2O)c(=O)n1 [Compound 15α, 1-(4-thio-α-L-Xylofuranosyl)cytosine] | 0.026 µM | >384.6 | > 10 µM |  |  |  |  |  |  | > 100 µM | > 100 µM | > 100 µM | > 100 µM | 8 µM | > 100 µM
Nc1nc(N)c2ncn([C@H]3S[C@@H](CO)[C@@H](O)[C@@H]3O)c2n1 [Compound 12β, 9-(4-Thio-β-L-Xylofuranosyl)-9H-purine-2,6-diamine] |  |  |  |  |  |  |  |  |  | > 100 µM | > 100 µM | > 100 µM | > 100 µM | > 100 µM | > 100 µM
Nc1nc(Cl)nc2c1ncn2[C@H]1S[C@@H](CO)[C@@H](O)[C@@H]1O [Compound 9β, 2-Chloro-9-(4-thio-β-L-xylofuranosyl)adenine] |  |  |  |  |  |  |  |  |  | > 100 µM | > 100 µM | > 100 µM | > 100 µM | > 100 µM | > 100 µM
Nc1ccn([C@H]2S[C@@H](CO)[C@@H](O)[C@@H]2O)c(=O)n1 [Compound 15β, 1-(4-thio-β-L-Xylofuranosyl)cytosine] | 0.022 µM | >454.5 | > 10 µM |  |  |  |  |  |  | > 100 µM | > 100 µM | > 100 µM | > 100 µM | 11 µM | 90 µM
